The source of these data is patent US9370523B2, “Method for diagnosing or prediagnosing a beta-amyloidopathy or an alpha-synucleopathy” (Immungenetics AG, priority 2010, dated 2016).

The test system of the test is ABCC1 transporter. Description: Activation of the ABCC1 transporter.

As for `CCSc1ccc2c(c1)N(CCCN1CCN(C)CC1)c1ccccc1S2` [thiethylperazine, 2-(ethylthio)-10-[3-(4-methylpiperazin-1-yl)propyl]-10H-phenothiazine], the “activation of the ABCC1 transporter, in words” value is reported as “particularly efficient activator of the ABCC1 transporter”.
